We go through eight compounds from PubChem BioAssay (NCI).

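1) Cells in 96-well plates. 2) Compound, 48 h, 5 concentrations. 3) Linear interpolation between surrounding doses. 4) Unreached endpoint = highest concentration. At the GI50, growth is halved. TGI is the concentration that stops growth completely.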 Some results are limits rather than exact numbers.

Among the test systems are SR leukemia; SNB-75 CNS; 786-0 renal; MOLT-4 leukemia; MDA-MB-231 breast; T-47D breast; A549 NSCLC; DU-145 prostate; HT29 colon; RXF 393 renal.
Common to all, as to test: growth of human tumour cells (NCI), 48 h

`C[C@]12CC[C@@H]3c4ccc(O)cc4CC[C@H]3[C@@H]1CC(Cc1ccccc1)(Cc1ccccc1)C2=O`: the GI50 with SR leukemia is 4.87 µM; in the experiment on SNB-75 CNS it was 16.7 µM; in the experiment with 786-0 renal, 13.6 µM; with MOLT-4 leukemia it was 9.11 µM; in the experiment with MDA-MB-231 breast it was 14.1 µM; with T-47D breast, 11 µM. Further, the GI50 in the experiment with A549 NSCLC is 18.5 µM; with DU-145 prostate, 15.1 µM; in the experiment with HT29 colon, 6.04 µM. The TGI came to 36.1 µM in the experiment with SR leukemia; 34.5 µM with SNB-75 CNS; 26.7 µM in the experiment with 786-0 renal; 32.8 µM in the experiment on MOLT-4 leukemia; 28.5 µM in the experiment with MDA-MB-231 breast; 34.6 µM with T-47D breast. For the same compound, the values for the TGI with A549 NSCLC, with DU-145 prostate and in the experiment on HT29 colon were 48.4 µM, 30.5 µM and 20.6 µM, respectively.
`Cc1cc(C)c([I+]c2c(C)cc(C)cc2C)c(C)c1`: the GI50 was 0.342 µM in the experiment on SNB-75 CNS; 0.398 µM in the experiment with RXF 393 renal; 0.749 µM in the experiment on 786-0 renal; 0.371 µM in the experiment on MDA-MB-231 breast; 0.406 µM in the experiment on T-47D breast; 0.958 µM in the experiment on A549 NSCLC. Further, the GI50 in the experiment with DU-145 prostate is 0.622 µM; with HT29 colon it was 0.279 µM. Besides, the TGI in the experiment with SNB-75 CNS was 1.39 µM; with RXF 393 renal, 1.55 µM; in the experiment with 786-0 renal it was 2.11 µM; in the experiment on MDA-MB-231 breast, 1.38 µM; with T-47D breast, 2.19 µM; in the experiment on A549 NSCLC it was 2.47 µM. Further, the TGI was 2.02 µM with DU-145 prostate and 1.29 µM with HT29 colon.
Turning to `CC1(C)CC[C@]2(C(=O)NCCNCCN)CC[C@]3(C)C(=CC[C@@H]4[C@@]5(C)CCC(=O)C(C)(C)[C@@H]5CC[C@]43C)[C@@H]2C1`, the GI50 in the experiment with SR leukemia is 1.7 µM; in the experiment on RXF 393 renal, 1.57 µM; in the experiment on 786-0 renal it was 1.71 µM; in the experiment with MOLT-4 leukemia it was 2.44 µM; in the experiment with MDA-MB-231 breast, 1.82 µM; with T-47D breast it was 1.88 µM. In addition, the results for the GI50 with DU-145 prostate and with HT29 colon were 1.85 µM and 1.96 µM, respectively. Also, the TGI came out at 4.76 µM in the experiment with SR leukemia; 2.93 µM with RXF 393 renal; 3.09 µM with 786-0 renal; 6.15 µM in the experiment with MOLT-4 leukemia; 3.35 µM with MDA-MB-231 breast; 3.95 µM in the experiment on T-47D breast. For the same compound, the TGI was found to be 3.41 µM in the experiment with DU-145 prostate and 4.43 µM in the experiment on HT29 colon.
Consider `COC(=O)[C@@H](C)C[C@H](Cc1ccc(F)cc1)NC(=O)c1csc([C@@H](C[C@H](C(C)C)N(C)C(=O)[C@@H](NC(=O)[C@H]2CCCCN2C)C2CC2)OC(C)=O)n1`, for which the GI50 with SR leukemia is 0.0282 µM; in the experiment with SNB-75 CNS, 0.174 µM; in the experiment with 786-0 renal it was 0.831 µM; in the experiment on MOLT-4 leukemia, 0.338 µM; with MDA-MB-231 breast, 0.315 µM; with T-47D breast it was over 25 µM. Also, the GI50 with A549 NSCLC is 0.959 µM; with DU-145 prostate it was 0.238 µM; with HT29 colon, 0.107 µM. The TGI in the experiment on SR leukemia was over 25 µM; in the experiment on SNB-75 CNS, over 25 µM; with 786-0 renal it was over 25 µM; in the experiment with MOLT-4 leukemia, over 25 µM; in the experiment with MDA-MB-231 breast it was 1.65 µM; in the experiment with T-47D breast, over 25 µM. Besides, the TGI in the experiment on A549 NSCLC was over 25 µM; with DU-145 prostate, over 9.05 µM; in the experiment with HT29 colon it was over 25 µM.
As for `N[C@@H](Cc1c[nH]c2ccccc12)C(=O)NC1CCN(Cc2c[nH]c3ccc(Cl)cc23)CC1`, the GI50 was 2.33 µM in the experiment with SR leukemia; 11.6 µM in the experiment with SNB-75 CNS; 11.4 µM with 786-0 renal; 2.79 µM in the experiment on MOLT-4 leukemia; 2.32 µM in the experiment with MDA-MB-231 breast; 4.65 µM with T-47D breast. The results for the GI50 with A549 NSCLC, in the experiment on DU-145 prostate and in the experiment with HT29 colon were 13.9 µM, 8.76 µM and 10.8 µM, respectively. Further, the TGI with SR leukemia came to 6.46 µM; with SNB-75 CNS, 29.1 µM; with 786-0 renal, 24.9 µM; with MOLT-4 leukemia, 9.6 µM; with MDA-MB-231 breast, 6 µM; in the experiment on T-47D breast it was 20 µM. Further, the results for the TGI with A549 NSCLC, with DU-145 prostate and in the experiment on HT29 colon were 27.5 µM, 21.2 µM and 23.5 µM, respectively.
As to `COc1ccc2cc(C(=O)N3CCC([C@@H](C)C(=O)NCc4ccc5c(c4)OCO5)CC3)[nH]c2c1`, the GI50 in the experiment with SR leukemia is over 100 µM; in the experiment on SNB-75 CNS, 17.8 µM; in the experiment with 786-0 renal it was 36.7 µM; in the experiment with MOLT-4 leukemia, over 100 µM; with MDA-MB-231 breast it was over 100 µM; in the experiment on T-47D breast it was over 100 µM. For the same compound, the GI50 with A549 NSCLC, with DU-145 prostate and with HT29 colon was over 100 µM in each case. For the same compound, the TGI is over 100 µM in the experiment with SR leukemia; 78.3 µM in the experiment on SNB-75 CNS; over 100 µM with 786-0 renal; over 100 µM in the experiment with MOLT-4 leukemia; over 100 µM with MDA-MB-231 breast; over 100 µM in the experiment on T-47D breast. Also, the TGI with A549 NSCLC, in the experiment with DU-145 prostate and with HT29 colon was over 100 µM each time.
Take `COc1cccc(C2SC(C)C(=O)N2NC(=O)C(O)c2ccccc2)c1` (stereo not given): the GI50 in the experiment with SNB-75 CNS, in the experiment on RXF 393 renal, in the experiment with 786-0 renal, in the experiment with MOLT-4 leukemia, in the experiment on MDA-MB-231 breast and in the experiment on T-47D breast was over 100 µM in each case. Also, the GI50 with A549 NSCLC, in the experiment with DU-145 prostate and with HT29 colon was over 100 µM in each case. Moreover, the TGI in the experiment on SNB-75 CNS, in the experiment with RXF 393 renal, in the experiment with 786-0 renal, in the experiment on MOLT-4 leukemia, in the experiment on MDA-MB-231 breast and in the experiment with T-47D breast was over 100 µM each time. The TGI with A549 NSCLC, in the experiment on DU-145 prostate and in the experiment on HT29 colon was over 100 µM each time.
Turning to `OCC#Cc1ccccc1C#Cc1ccc(C#Cc2ccccc2C#CCO)cc1`, the GI50 was 22 µM with SR leukemia; 85.1 µM in the experiment with SNB-75 CNS; 32 µM with 786-0 renal; 15.9 µM in the experiment with MOLT-4 leukemia; 25.5 µM in the experiment with MDA-MB-231 breast; over 100 µM in the experiment with T-47D breast. The GI50 with A549 NSCLC was 32.7 µM; in the experiment with DU-145 prostate it was 27.3 µM; with HT29 colon, 45.4 µM. Further, the TGI in the experiment with SR leukemia was 49.5 µM; in the experiment on SNB-75 CNS, over 100 µM; in the experiment with 786-0 renal, 82.6 µM; with MOLT-4 leukemia, 39.6 µM; in the experiment with MDA-MB-231 breast, 58.1 µM; in the experiment with T-47D breast, over 100 µM. In addition, the TGI with A549 NSCLC is over 100 µM; in the experiment on DU-145 prostate it was 91.3 µM; with HT29 colon, over 100 µM.
